Data: US9982005B2, “Macrolides and methods of their preparation and use” (President and Fellows of Harvard College, priority 2013, dated 2018)
In brackets after ≈: the same amount, converted by molar mass. Read-outs that look alike come from different tables or passages of the source.

Assays:
Format in all cases: cell-based
[1] = system: Spn1533 S. pneumoniae ermB positive mefA positive; test: broth dilution MIC, S. pneumoniae Spn1533; conditions: Streptococcus pneumoniae
Description: (§1) We have collected MIC data for a total of 50 novel macrolides that this platform has produced against over 21 unique strains of B. subtilis, E. coli, S. aureus, S. pneumoniae, and H. influenzae, including several multidrug-resistant strains, with a special focus on macrolide resistant mechanisms (vide supra). Azithromycin was included as a control macrolide. CLSI standard procedures for broth dilution MIC determination were used. […] These genotypes can be constitutive or inducible. The finding that C4-epi (unnatural) isomers of the “azaketolide” macrolide class have enhanced activities relative to C4 natural isomers is very exciting.

[2] = system: SA418 S. aureus ermA negative msrA positive; test: broth dilution MIC, S. aureus SA418; conditions: Staphylococcus aureus
Description: as §1

[3] = system: HI175 H. influenzae ATCC49247; test: broth dilution MIC, H. influenzae HI175; conditions: Haemophilus influenzae
Description: as §1

[4] = system: Spn160 S. pneumoniae ermB unknown mefA positive; test: broth dilution MIC, S. pneumoniae Spn160; conditions: Streptococcus pneumoniae
Description: as §1

[5] = system: SA101 S. aureus ATCC29213; test: broth dilution MIC, S. aureus SA101; conditions: Staphylococcus aureus, ATCC29213, SA101 S. aureus ATCC29213; read-out: MIC
Outline: (§2)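 Values are broth dilution MICs measured according to CLSI standard procedure; the macrolide azithromycin was tested as control.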

[6] = system: SA557 S. aureus ermA unknown msrA positive; test: broth dilution MIC, S. aureus SA557; conditions: Staphylococcus aureus; SA557 S. aureus ermA unknown msrA positive; read-out: MIC
Description: as §1

[7] = system: Spn1537 S. pneumoniae ermB positive mefA positive; test: broth dilution MIC, S. pneumoniae Spn1537; conditions: Streptococcus pneumoniae
Description: as §1

[8] = system: SA183 S. aureus ermA positive msrA unknown; test: broth dilution MIC, S. aureus SA183; conditions: Staphylococcus aureus
Description: as §1

[9] = system: Spn 106 S. pneumonia ATCC49619; test: broth dilution MIC, S. pneumoniae Spn 106; conditions: Streptococcus pneumoniae
Description: as §1

[10] = system: SA506 S. aureus ermA positive msrA unknown; test: broth dilution MIC, S. aureus SA506; conditions: Staphylococcus aureus
Description: as §1

HI281 H. influenzae = test: broth dilution MIC, H. influenzae HI281; conditions: Haemophilus influenzae
Description: as §1

[11] = system: SA1707 S. aureus ermA negative msrA positive; test: broth dilution MIC, S. aureus SA1707; conditions: Staphylococcus aureus
Description: as §1

[12] = system: SA1708 S. aureus ermA positive msrA negative; test: broth dilution MIC, S. aureus SA1708; conditions: Staphylococcus aureus
Description: as §1

[13] = system: Spn1509 S. pneumoniae ermB positive mefA negative; test: broth dilution MIC, S. pneumoniae Spn1509; conditions: Streptococcus pneumoniae; Spn1509 S. pneumoniae ermB positive mefA negative; read-out: MIC
Description: as §1

[14] = system: Spn1427 S. pneumoniae ermB positive mefA negative; test: broth dilution MIC, S. pneumoniae Spn1427; conditions: Streptococcus pneumoniae
Description: as §1

K. pneumoniae strains = test: MIC against K. pneumoniae strains (Table M8); conditions: Klebsiella pneumoniae, K. pneumoniae 10031
S. aureus strains = test: MIC against S. aureus strains (Table M7); conditions: Staphylococcus aureus
Outline: as §2

H. influenzae strains = test: MIC against H. influenzae strains (Table M8); conditions: Haemophilus influenzae
Outline: as §2

E. coli strains = test: MIC against E. coli strains (Table M7); conditions: Escherichia coli, ATCC25922, E. coli ATCC 25922
Outline: as §2

S. pneumoniae strains = test: MIC against S. pneumoniae strains (Tables M7, M8); conditions: Streptococcus pneumoniae
Description: CLSI standard procedures for broth dilution MIC determination were used. […] These genotypes can be constitutive or inducible.

E. faecalis strains = test: MIC against E. faecalis strains (Table M8); conditions: Enterococcus faecalis, E. faecalis 29212
A. baumannii strains = test: MIC against A. baumannii strains (Table M8); conditions: Acinetobacter baumannii, BAA747, A. baumannii BAA747-1
EC878 E. coli tolC = test: broth dilution MIC, E. coli EC878; conditions: Escherichia coli
Outline: as §2

BS1725 B. subtilis ermC = test: broth dilution MIC, B. subtilis BS1725; conditions: Bacillus subtilis, BS1725 B. subtilis ermC (+ery)
Outline: as §2

[15] = system: BS1723 B. subtilis BS168 WT wild type; test: broth dilution MIC, B. subtilis BS1723; conditions: Bacillus subtilis, BS1723 B. subtilis BS168 WT wild type; read-out: MIC
Outline: as §2

EC882 E. coli imp = test: broth dilution MIC, E. coli EC882; conditions: Escherichia coli
Outline: as §2

EC107 E. coli ATCC25922 = test: broth dilution MIC, E. coli EC107; conditions: Escherichia coli, read-out: MIC
Outline: as §2

[16] = Spn160 S. pneumoniae ermB unknown mefA positive, read-out: MIC
[17] = Spn 106 S. pneumonia ATCC49619, read-out: MIC
[18] = ATCC29213, S. aureus ATCC 29213, read-out: MIC S. aureus (ATCC 29213)
[19] = S. aureus 506, read-out: MIC S. aureus (506)
[20] = S. aureus 1708, read-out: MIC S. aureus (1708)
[21] = USA300, S. aureus USA300, read-out: MIC S. aureus (USA300)
[22] = H. influenzae 49247, read-out: MIC H. influenzae (49247)
[23] = H. influenzae 49766, read-out: MIC H. influenzae (49766)
[24] = S. pneumoniae 160, read-out: MIC S. pneumonae (160)
[25] = S. pneumoniae 1509, read-out: MIC S. pneumoniae (1509)
[26] = S. pneumoniae 1533, read-out: MIC S. pneumoniae (1533)
[27] = S. pneumoniae 1537, read-out: MIC S. pneumoniae (1537)

Structure (SMILES)	MIC [1] [µg/mL]	MIC [2] [µg/mL]	MIC [3] [µg/mL]	MIC [4, 16] [µg/mL]	MIC [5] [µg/mL]	MIC [6] [µg/mL]	MIC [7] [µg/mL]	MIC [8] [µg/mL]	MIC [9, 17] [µg/mL]	MIC [10] [µg/mL]	MIC (HI281 H. influenzae) [µg/mL]	MIC [11] [µg/mL]	MIC [12] [µg/mL]	MIC [13] [µg/mL]	MIC [14] [µg/mL]	MIC (K. pneumoniae strains) [µg/mL]	MIC (S. aureus strains; [18]) [µg/mL]	MIC (S. aureus strains; [19]) [µg/mL]	MIC (S. aureus strains; [20]) [µg/mL]	MIC (S. aureus strains; [21]) [µg/mL]	also measured
CC[C@H]1OC(=O)[C@H](C)C(=O)[C@H](C)[C@@H](O[C@@H]2OC(C)CC(N(C)C)C2O)[C@](C)(OC)C[C@@H](C)C(=O)N[C@H](C)[C@H]2N(CCCCn3cc(-c4ccccn4)nn3)C(=O)O[C@]12C (stereo partly shown) [FSM-20781]	> 32	> 32	> 32	> 32	> 32	> 32	> 32	> 32	8 (≈ 9.66 µM)	> 32	32 (≈ 38.6 µM)	> 32	> 32	> 32	> 32	–	–	–	–	–	–
CC[C@H]1OC(=O)C(C)C(=O)[C@@H](C)[C@@H](O[C@@H]2OC(C)CC(N(C)C)C2O)[C@](C)(OC)C[C@@H](C)CN[C@H](C)[C@H]2N(CCCCn3cc(-c4cccc(N)c4)nn3)C(=O)O[C@]12C (stereo partly shown) [FSM-20789]	> 32	4 (≈ 4.83 µM)	4 (≈ 4.83 µM)	0.25 (≈ 0.302 µM)	2 (≈ 2.42 µM)	2 (≈ 2.42 µM)	> 32	> 32	–	> 32	8 (≈ 9.66 µM)	4 (≈ 4.83 µM)	2 (≈ 2.42 µM)	1 (≈ 1.21 µM)	8 (≈ 9.66 µM)	4 (≈ 4.83 µM)	2 (≈ 2.42 µM)	> 32	2 (≈ 2.42 µM)	4 (≈ 4.83 µM)	MIC (H. influenzae strains; [22]): 2 µg/mL (≈ 2.42 µM); MIC (H. influenzae strains; [23]): 8 µg/mL (≈ 9.66 µM); MIC (E. coli strains): 16 µg/mL (≈ 19.3 µM); MIC ([9]; ATCC49619): 0.0625 µg/mL (≈ 0.0755 µM); MIC (S. pneumoniae strains; [24]): 0.5 µg/mL (≈ 0.604 µM); MIC (S. pneumoniae strains; [25]): 4 µg/mL (≈ 4.83 µM); MIC (S. pneumoniae strains; [26]): > 32 µg/mL; MIC (S. pneumoniae strains; [27]): > 32 µg/mL; MIC (S. pneumoniae strains; S. pneumoniae 49619, read-out: MIC S. pneumoniae (49619)): 0.125 µg/mL (≈ 0.151 µM); MIC (E. faecalis strains): 0.5 µg/mL (≈ 0.604 µM); MIC (A. baumannii strains): 32 µg/mL (≈ 38.6 µM)
CC[C@H]1OC(=O)[C@H](C)C(=O)[C@H](C)[C@@H](O[C@@H]2OC(C)CC(N(C)C)C2O)[C@](C)(OC)C[C@@H](C)CN[C@H](C)[C@H]2N(CCCCn3cc(-c4ccccn4)nn3)C(=O)O[C@]12C (stereo partly shown) [FSM-20706]	–	2 (≈ 2.46 µM)	0.5 to 2 (≈ 0.614 to 2.46 µM)	–	2 (≈ 2.46 µM)	2 (≈ 2.46 µM)	> 32	> 32	0.0156 to 0.0312 (≈ 0.0192 to 0.0383 µM)	> 32	4 (≈ 4.91 µM)	4 (≈ 4.91 µM)	4 (≈ 4.91 µM)	0.5 to 2 (≈ 0.614 to 2.46 µM)	> 32	4 (≈ 4.91 µM)	2 (≈ 2.46 µM)	> 32	1 (≈ 1.23 µM)	2 (≈ 2.46 µM)	MIC (EC878 E. coli tolC): 0.5 µg/mL (≈ 0.614 µM); MIC [4]: 0.0625 to 0.125 µg/mL (≈ 0.0768 to 0.154 µM); MIC (BS1725 B. subtilis ermC): 16 µg/mL (≈ 19.7 µM); MIC (H. influenzae strains; [22]): 0.5 µg/mL (≈ 0.614 µM); MIC (H. influenzae strains; [23]): 2 µg/mL (≈ 2.46 µM); MIC (E. coli strains): 8 µg/mL (≈ 9.83 µM); MIC (S. pneumoniae strains; [24]): 0.125 µg/mL (≈ 0.154 µM); MIC (S. pneumoniae strains; [25]): 4 µg/mL (≈ 4.91 µM); MIC (S. pneumoniae strains; [26]): > 32 µg/mL; MIC (S. pneumoniae strains; [27]): > 32 µg/mL; MIC (S. pneumoniae strains; read-out: MIC S. pneumoniae (49619)): ≤ 0.0625 µg/mL; MIC (E. faecalis strains): 0.25 µg/mL (≈ 0.307 µM); MIC (A. baumannii strains): 32 µg/mL (≈ 39.3 µM); MIC [15]: 1 µg/mL (≈ 1.23 µM); MIC (EC882 E. coli imp): 0.0625 µg/mL (≈ 0.0768 µM); MIC (EC107 E. coli ATCC25922): 8 µg/mL (≈ 9.83 µM)
